Measurements taken from patent US4107424A, “1-N-[(S)-α-hydroxy-ω-aminoacyl] derivatives of 3',4'-dideoxykanamycin B and 3'-deoxykanamycin B antibiotics” (Zaidan Hojin Biseibutsu Kagaku Kenkyu Kai, priority 1972, dated 1978).
In brackets after ≈: the same amount, converted by molar mass.

Key:
[1] = test system: Bacillus subtilis NRRL B-558; assay: Minimal inhibitory concentration, agar dilution streak method; type: cell-based; conditions: NRRLB558, nutrient agar, 37° C, 18 hours
Protocol: (§1) [α]D^22 + 38°, (c 0.85, water).
(§2) *Agar Agar dilution streak method (nutrient agar, 37° C, 18 hours)
(§3) *Agar dilution streak method (nutrient agar, 37° C, 18 hours).

[2] = test system: Escherichia coli J 5 R 11-2; assay: as above; type: cell-based; conditions: J5R112, 18 h, read-out: Minimal inhibitory concentration
Protocol: as §1, §2, §3

[3] = test system: Escherichia coli K-12 C 600 R 135; assay: as above; type: cell-based; conditions: 18 h, read-out: Minimal inhibitory concentration
Protocol: as §1, §2, §3

[4] = test system: Escherichia coli K-12 R-5; assay: as above; type: cell-based; conditions: K12R5, nutrient agar, 37° C, 18 hours
Protocol: as §1, §2, §3

Escherichia coli NIHJ = assay: as above; type: cell-based; conditions: nutrient agar, 37° C, 18 hours
Protocol: as §1, §2, §3

[5] = test system: Klebsiella pneumoniae PCI 602; assay: as above; type: cell-based; conditions: PCI602, nutrient agar, 37° C, 18 hours
Protocol: as §1, §2, §3

Proteus rettgeri GN 311 = assay: as above; type: cell-based; conditions: Providencia rettgeri, GN311; nutrient agar, 37° C, 18 hours
Protocol: as §1, §2, §3

Proteus rettgeri GN 466 = assay: as above; type: cell-based; conditions: Providencia rettgeri, GN466; nutrient agar, 37° C, 18 hours
Protocol: as §1, §2, §3

[6] = test system: Pseudomonas aeruginosa 99; assay: as above; type: cell-based; conditions: nutrient agar, 37° C, 18 hours, read-out: Minimal inhibitory concentration
Protocol: as §1, §2, §3

Salmonella typhosa T-63 = assay: as above; type: cell-based; conditions: Salmonella enterica, nutrient agar, 37° C, 18 hours
Protocol: as §1, §2, §3

Sarcina lutea PCI 1001 = assay: as above; type: cell-based; conditions: Micrococcus luteus, PCI1001; nutrient agar, 37° C, 18 hours; read-out: Minimal inhibitory concentration
Protocol: as §1, §2, §3

[7] = test system: Escherichia coli K-12 JR 66/W 677; assay: as above; type: cell-based; conditions: Escherichia coli, 18 h, read-out: Minimal inhibitory concentration
Protocol: as §2, §3

[8] = test system: Escherichia coli K-12 LA 290 R 55; assay: as above; type: cell-based; conditions: 18 h, read-out: Minimal inhibitory concentration
Protocol: as §2, §3

[9] = test system: Escherichia coli K-12 LA 290 R 56; assay: as above; type: cell-based; conditions: 18 h, read-out: Minimal inhibitory concentration
Protocol: as §2, §3

[10] = test system: Escherichia coli K-12 LA 290 R 64; assay: as above; type: cell-based; conditions: nutrient agar, 37° C, 18 hours, read-out: Minimal inhibitory concentration
Protocol: as §2, §3

[11] = test system: Escherichia coli K-12 ML 1410 R 81; assay: as above; type: cell-based; conditions: 18 h, read-out: Minimal inhibitory concentration
Protocol: as §2, §3

[12] = test system: Escherichia coli K-12 ML 1410; assay: as above; type: cell-based; conditions: K12ML1410, nutrient agar, 37° C, 18 hours, read-out: Minimal inhibitory concentration
Protocol: as §2, §3

[13] = test system: Escherichia coli K-12 ML 1629; assay: as above; type: cell-based; conditions: K12ML1629, nutrient agar, 37° C, 18 hours, read-out: Minimal inhibitory concentration
Protocol: as §2, §3

[14] = test system: Escherichia coli K-12 ML 1630; assay: as above; type: cell-based; conditions: K12ML1630, nutrient agar, 37° C, 18 hours, read-out: Minimal inhibitory concentration
Protocol: as §2, §3

[15] = test system: Escherichia coli K-12 W 677; assay: as above; type: cell-based; conditions: K12W677, nutrient agar, 37° C, 18 hours, read-out: Minimal inhibitory concentration
Protocol: as §2, §3

Escherichia coli K-12 = assay: as above; type: cell-based; conditions: K12, nutrient agar, 37° C, 18 hours, read-out: Minimal inhibitory concentration
Protocol: as §2, §3

[16] = test system: Klebsiella pneumoniae type 22 #3038; assay: as above; type: cell-based; conditions: Klebsiella pneumoniae; nutrient agar, 37° C, 18 hours
Protocol: as §2, §3

[17] = test system: Pseudomonas aeruginosa A 3; assay: as above; type: cell-based; conditions: A3, nutrient agar, 37° C, 18 hours, read-out: Minimal inhibitory concentration
Protocol: as §2, §3

[18] = test system: Pseudomonas aeruginosa GN 315; assay: as above; type: cell-based; conditions: GN315, nutrient agar, 37° C, 18 hours, read-out: Minimal inhibitory concentration
Protocol: as §2, §3

[19] = test system: Pseudomonas aeruginosa No.12; assay: as above; type: cell-based; conditions: nutrient agar, 37° C, 18 hours, read-out: Minimal inhibitory concentration
Protocol: as §2, §3

[20] = test system: Pseudomonas aeruginosa TI-13; assay: as above; type: cell-based; conditions: TI13, nutrient agar, 37° C, 18 hours, read-out: Minimal inhibitory concentration
Protocol: as §2, §3

[21] = test system: Staphylococcus aureus FDA 209P; assay: as above; type: cell-based; conditions: FDA209P, nutrient agar, 37° C, 18 hours, read-out: Minimal inhibitory concentration
Protocol: as §2, §3

[22] = test system: Mycobacterium smegmatis ATCC 607; assay: as above; type: cell-based; conditions: Mycolicibacterium smegmatis, ATCC607; nutrient agar, 37° C, 48 hours; read-out: Minimal inhibitory concentration
phosphotransferase = conditions: phosphorylation of hydroxyl group; cited from earlier work

NC[C@@H]1CC[C@@H](N)[C@@H](O[C@H]2[C@H](O[C@@H]3O[C@H](CO)[C@@H](O)[C@H]3O)[C@@H](O)[C@H](N)C[C@@H]2N)O1 [3',4'-dideoxyribostamycin]
MIC [1]: 1.56 µg/mL (≈ 3.69 µM) | MIC [2]: 100 µg/mL (≈ 237 µM) | MIC [3]: 3.12 µg/mL (≈ 7.38 µM) | MIC [4]: 100 µg/mL (≈ 237 µM) | MIC (Escherichia coli NIHJ): 6.25 µg/mL (≈ 14.8 µM) | MIC [5]: 3.12 µg/mL (≈ 7.38 µM) | MIC (Proteus rettgeri GN 311): 6.25 µg/mL (≈ 14.8 µM) | MIC (Proteus rettgeri GN 466): 6.25 µg/mL (≈ 14.8 µM) | MIC [6]: 50 µg/mL (≈ 118 µM) | MIC (Salmonella typhosa T-63): 1.56 µg/mL (≈ 3.69 µM) | MIC (Sarcina lutea PCI 1001): > 100 µg/mL | MIC [7]: 6.25 µg/mL (≈ 14.8 µM) | MIC [8]: 3.12 µg/mL (≈ 7.38 µM) | MIC [9]: 1.56 µg/mL (≈ 3.69 µM) | MIC [10]: 3.12 µg/mL (≈ 7.38 µM) | MIC [11]: > 100 µg/mL | MIC [12]: 6.25 µg/mL (≈ 14.8 µM) | MIC [13]: > 100 µg/mL | MIC [14]: > 100 µg/mL | MIC [15]: 3.12 µg/mL (≈ 7.38 µM) | MIC (Escherichia coli K-12): 3.12 µg/mL (≈ 7.38 µM) | MIC [16]: 6.25 µg/mL (≈ 14.8 µM) | MIC [17]: 6.25 µg/mL (≈ 14.8 µM) | MIC [18]: > 100 µg/mL | MIC [19]: 12.5 µg/mL (≈ 29.6 µM) | MIC [20]: 25 µg/mL (≈ 59.2 µM) | MIC [21]: 3.12 µg/mL (≈ 7.38 µM) | MIC [22]: 3.12 µg/mL (≈ 7.38 µM) | inactivation by phosphotransferase (phosphotransferase): inactivated by phosphorylating 5"-hydroxyl group
